For orientation: EC50 means the concentration at which the effect is half-maximal. Higher therefore signals a need for much substance.

SMILES strings stand for the structures.

T1 sequence (Q9NZC2 19-230): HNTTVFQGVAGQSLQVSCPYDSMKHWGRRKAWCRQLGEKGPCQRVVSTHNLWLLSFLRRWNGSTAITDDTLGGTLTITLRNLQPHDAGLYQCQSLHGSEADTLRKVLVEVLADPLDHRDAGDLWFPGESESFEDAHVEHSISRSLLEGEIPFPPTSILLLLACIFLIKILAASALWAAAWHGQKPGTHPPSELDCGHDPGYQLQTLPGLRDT
T1 sequence (O43914 22-113 partner): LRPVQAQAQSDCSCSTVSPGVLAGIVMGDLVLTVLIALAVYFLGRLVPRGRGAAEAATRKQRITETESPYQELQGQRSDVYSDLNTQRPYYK

One assay has as its target T1, human TREM2 (Homo sapiens, UniProt Q9NZC2).
T1 construct: expressed in transfected cells; host or cells: HEK293T
Briefly: TREM2 agonist potency by cellular phosphorylation of Syk (AlphaLisa) in HEK293T-hTREM2 cells. Format: cell-based. To be noted: HEK293 cells expressing human TREM2 and DAP12, Table D. The protocol:
In Vitro Measurement of Triggering Receptor Expressed on Myeloid Cells 2 Activity Using Cellular Phosphorylation of Spleen Tyrosine Kinase (“Syk”) Assays
Measurement of TREM2 agonist potency was done using a HEK cell line expressing human TREM2 and DAP12 (HEK293T-hTREM2 cells). Binding of small molecules to, and activation of, TREM2 increases the phosphorylation of Syk. The resultant levels of Syk phosphorylation are measured using a commercial AlphaLisa reagent kit. To perform the assay, HEK-hTREM2 cells were plated at 14,000 cells per well in a 384 well plate, in 25 μL of complete growth media and incubated at 37° C., 5% CO2 for 20-24 hours.
Prior to the assay, test compounds were diluted in the 384 well plates in assay buffer and allowed to equilibrate for 30 minutes. Growth media was removed from cell plates by inversion on blotting paper, and 25 μL of test articles in assay buffer was added to cells. Cells were incubated for 45 minutes at room temperature. After 45 minutes, assay buffer was removed and 10 μL of lysis buffer was added. Plates were shaken for 20 minutes at 350 RPM at room temperature. After complete lysis, AlphaLisa reagents were added to the lysate, and fluourescence intensity was measured using a Perkin Elmer Envision plate reader. Intensities were used to generate a standard curve, and % activation was calculated. Curve fitting was performed using Prism v9 software, log(agonist) vs response-variable slope (four parameters), and EC50s were calculated from the curve fit.
This assay may be used to test any of the compounds described herein to assess and characterize a compound's ability to act as an agonist of TREM2.
In general terms: In Alpha technology, singlet oxygen from a donor bead excites a nearby acceptor bead.
Turning to `Cc1ccc2c(-c3ccc(F)cc3F)nc([C@H]3CCO[C@@H](c4cnn(C5CC5)c4)C3)nc2n1` [Example 215, 2-((2R,4S)-2-(1-cyclopropyl-1H-pyrazol-4-yl)tetrahydro-2H-pyran-4-yl)-4-(2,4-difluorophenyl)-7-methylpyrido[2,3-d]pyrimidine], the EC50 lay in the range of 50 to 500 nM.
The compound `Cc1nc2nc(N3CCO[C@@H](c4cc[nH]c(=O)c4)C3)nc(-c3ccc(C(F)(F)F)nc3)c2nc1C` [Example 195, (S)-4-(4-(6,7-dimethyl-4-(6-(trifluoromethyl)pyridin-3-yl)pteridin-2-yl)morpholin-2-yl)pyridin-2(1H)-one] yielded an EC50 below 50 nM.
Turning to `Cc1nc2nc(-c3ccc(Cl)cc3F)cc(C3CCO[C@@H](c4cnn(C5CC5)c4)C3)c2nc1C` (stereo partly drawn) [Example 235, 6-(4-chloro-2-fluorophenyl)-8-((2R)-2-(1-cyclopropyl-1H-pyrazol-4-yl)tetrahydro-2H-pyran-4-yl)-2,3-dimethylpyrido[2,3-b]pyrazine], the EC50 is below 50 nM.
In the case of `Cc1cnc2c(-c3ccc(F)cc3F)nc(N3C[C@@H](c4cnn(C5CC5)c4)O[C@@H](C)C3)cc2n1` [Example 208, (2R,6S)-2-(1-cyclopropyl-1H-pyrazol-4-yl)-4-(5-(2,4-difluorophenyl)-2-methylpyrido[3,4-b]pyrazin-7-yl)-6-methylmorpholine], the EC50 was in the range of 500 to 3000 nM.
Regarding `Cc1nc2nc(N3CCO[C@H](c4cc[nH]c(=O)c4)C3)nc(C34CC(C(F)(F)F)(C3)C4)c2nc1C` [Example 199, (R)-4-(4-(6,7-dimethyl-4-(3-(trifluoromethyl)bicyclo[1.1.1]pentan-1-yl)pteridin-2-yl)morpholin-2-yl)pyridin-2(1H)-one], the EC50 lay in the range of 50 to 500 nM.
With `[2H]C([2H])([2H])c1ccc(-c2nc([C@@H]3CCO[C@H](c4cnn(C([2H])([2H])[2H])c4)C3)nc3nc(C([2H])([2H])[2H])c(C([2H])([2H])[2H])nc23)cc1` [Example 174, 6,7-bis(methyl-d3)-2-((2S,4R)-2-(1-(methyl-d3)-1H-pyrazol-4-yl)tetrahydro-2H-pyran-4-yl)-4-(4-(methyl-d3)phenyl)pteridine], the EC50 is 3000 to 100000 nM.
The compound `COc1cccc([C@@H]2C[C@H](c3nc(-c4ccc(F)cc4F)c4nc(C)c(C)nc4n3)CCO2)n1` [Example 164, 4-(2,4-difluorophenyl)-2-((2S,4R)-2-(6-methoxypyridin-2-yl)tetrahydro-2H-pyran-4-yl)-6,7-dimethylpteridine] yielded an EC50 of 500 to 3000 nM.
`COc1cccc([C@@H]2C[C@H](c3nc(C45CC(C(F)(F)F)(C4)C5)c4nc(C)c(C)nc4n3)CCO2)n1` [Example 145, 2-[ (2S,4R)-2-(6-methoxy-2-pyridyl)tetrahydropyran-4-yl] - 6,7-dimethyl-4-[3-(trifluoromethyl)-1-bicyclo[1.1.1]pentanyl]pteridine] came in with an EC50 of 500 to 3000 nM.
Compound `Cc1nc2nc([C@@H]3CCO[C@H](c4cccn(C)c4=O)C3)nc(-c3ccc(F)cc3F)c2nc1C` [Example 204] yielded an EC50 of 500 to 3000 nM.
With `[2H]C1([2H])C[C@@H](c2nc(-c3ccc(F)cc3F)c3nc(C)c(C)nc3n2)C[C@@]([2H])(c2cnn(C3CC3)c2)O1` (single isomer, unassigned) [Example 191], the EC50 was 3000 to 100000 nM.
On to `Cc1cc([C@@H]2C[C@H](c3cc(-c4ccc(Cl)c(F)c4F)c4cc(C)c(C)nc4n3)CCO2)ccn1` [Example 187, 5-(4-chloro-2,3-difluorophenyl)-2,3-dimethyl-7-((2S,4R)-2-(2-methylpyridin-4-yl)tetrahydro-2H-pyran-4-yl)-1,8-naphthyridine], for which the EC50 is below 50 nM.
The compound `Cc1nc2nc([C@H]3CCO[C@@H](c4cnn(CCF)c4)C3)nc(-c3ccc(F)cc3F)c2nc1C` [Example 150, 4-(2,4-difluorophenyl)-2-((2R,4S)-2-(1-(2-fluoroethyl)-1H-pyrazol-4-yl)tetrahydro-2H-pyran-4-yl)-6,7-dimethylpteridine] gave an EC50 below 50 nM.
Still for that read-out and setting: to `Cc1cc([C@H]2C[C@@H](c3nc(-c4ccc(Cl)c(F)c4F)c4ncc(C)nc4n3)CCO2)ccn1` [Example 130, 4-(4-chloro-2,3-difluorophenyl)-7-methyl-2-((2R,4S)-2-(2-methylpyridin-4-yl)tetrahydro-2H-pyran-4-yl)pteridine] belongs below 50 nM; to `[2H]C1([2H])C[C@@H](c2nc(-c3ccc(Cl)cc3F)c3nc(C)c(C)nc3n2)C[C@@H](c2cnn(C3CC3)c2)O1` [Example 189, 4-(4-chloro-2-fluorophenyl)-2-((2S,4R)-2-(1-cyclopropyl-1H-pyrazol-4-yl)tetrahydro-2H-pyran-4-yl-6,6-d2)-6,7-dimethylpteridine], 50 to 500 nM; to `Fc1ccc(-c2nc([C@H]3CCO[C@@H](c4cnn(C5CC5)c4)C3)cc3nc4c(nc23)COC4)c(F)c1` [Example 238, 7-((2R,4S)-2-(1-cyclopropyl-1H-pyrazol-4-yl)tetrahydro-2H-pyran-4-yl)-5-(2,4-difluorophenyl)-1,3-dihydrofuro[3,4-b]pyrido[3,4-e]pyrazine], 50 to 500 nM.
For `Cc1cnc2c(-c3ccc(Cl)cc3F)nc([C@H]3C[C@@H](c4cnn(C5CC5)c4)O[C@@H](C)C3)nc2n1` [Example 128, 4-(4-chloro-2-fluorophenyl)-2-((2S,4R,6S)-2-(1-cyclopropyl-1H-pyrazol-4-yl)-6-methyltetrahydro-2H-pyran-4-yl)-7-methylpteridine], the EC50 was below 50 nM.
The same measure, in the same setting: to `Cc1nc2nc(N3CCO[C@H](c4cnn(C5CC5)c4)C3)nc(-c3ccc4c(c3)CC4)c2nc1C` [Example 242, (R)-4-(4-(bicyclo[4.2.0]octa-1,3,5-trien-3-yl)-6,7-dimethylpteridin-2-yl)-2-(1-cyclopropyl-1H-pyrazol-4-yl)morpholine] belongs below 50 nM; to `COc1ccc([C@@H]2C[C@H](c3nc(-c4ccc(F)cc4F)c4nc(C)c(C)nc4n3)CCO2)cn1` [Example 162, 4-(2,4-difluorophenyl)-2-((2S,4R)-2-(6-methoxypyridin-3-yl)tetrahydro-2H-pyran-4-yl)-6,7-dimethylpteridine], 50 to 500 nM; to `Cc1cc([C@@H]2C[C@H](c3nc(-c4cc(F)c(Cl)c(F)c4)c4nc(C)c(C)nc4n3)CCO2)ccn1` [Example 132, 4-(4-chloro-3,5-difluorophenyl)-6,7-dimethyl-2-((2S,4R)-2-(2-methylpyridin-4-yl)tetrahydro-2H-pyran-4-yl)pteridine], 3000 to 100000 nM.
`COc1ncccc1[C@H]1C[C@@H](c2nc(C34CC(C(F)(F)F)(C3)C4)c3nc(C)c(C)nc3n2)CCO1` [Example 144, 2-((2R,4S)-2-(2-methoxypyridin-3-yl)tetrahydro-2H-pyran-4-yl)-6,7-dimethyl-4-(3-(trifluoromethyl)bicyclo[1.1.1]pentan-1-yl)pteridine] came in with an EC50 of 50 to 500 nM.
Compound `Cc1cnc2c(C34CC(C(F)(F)F)(C3)C4)nc(N3C[C@@H](C)O[C@@H](c4cnn(C5CC5)c4)C3)nc2n1` [Example 126, (2S,6R)-2-(1-cyclopropyl-1H-pyrazol-4-yl)-6-methyl-4-(7-methyl-4-(3-(trifluoromethyl)bicyclo[1.1.1]pentan-1-yl)pteridin-2-yl)morpholine] had an EC50 below 50 nM.

Staying with this assay, now noted: HEK293 cells expressing human TREM2 and DAP12, Table D-2.
For `Cc1nc2nc(-c3cc(-c4cnn(C5CC5)c4)c(=O)n(C)c3)nc(-c3ccc(F)cc3F)c2nc1C` [Example I-1461, 3-(1-cyclopropyl-1H-pyrazol-4-yl)-5-(4-(2,4-difluorophenyl)-6,7-dimethylpteridin-2-yl)-1-methylpyridin-2(1H)-one], the EC50 lay in the range of 50 to 500 nM.
On the same count and under the same terms, with `Cc1nc2c(-c3ccc(Cl)cc3F)nc([C@H]3CCO[C@@H](c4cnn(C5CC5)c4)C3)nc2nc1CC(F)F` [Example I-1477, 4-(4-chloro-2-fluoro-phenyl)-2-[(2R,4S)-2-(1-cyclopropylpyrazol-4-yl)tetrahydropyran-4-yl]-7-(2,2-difluoroethyl)-6-methyl-pteridine] the figure was 50 to 500 nM.
In turn, `Cc1nc2nc([C@H]3CCO[C@@H](c4cnn(C5CC5)c4)C3)nc(-c3ccc(F)cc3F)c2nc1C(F)F` [Example I-1323, 2-[(2R,4S)-2-(1-cyclopropylpyrazol-4-yl)tetrahydropyran-4-yl]-6-(difluoromethyl)-4-(2,4-difluorophenyl)-7-methyl-pteridine] yielded an EC50 below 50 nM.
In the case of `COCn1cc([C@H]2CN(c3nc(-c4ccc(F)cc4F)c4cc(C)c(C)nc4n3)C[C@@H](C)O2)cn1` [Example I-1226, (2S,6R)-4-[4-(2,4-difluorophenyl)-6,7-dimethyl-pyrido[2,3-d]pyrimidin-2-yl]-2-[1-(methoxymethyl)pyrazol-4-yl]-6-methyl-morpholine], the EC50 was below 50 nM.
The compound `Cc1nc2nc([C@@H]3CCO[C@@H](c4cnc(C5CC5)o4)C3)nc(-c3ccc(F)cc3F)c2nc1C` (single isomer, unassigned) [Example I-1696] displayed an EC50 of 500 to 3000 nM.
Compound `Cc1nc2nc(N3C[C@@H](c4cnn(C(F)F)c4)O[C@@H](C4CC4)C3)nc(-c3ccc(C(F)(F)F)cc3F)c2nc1C` [Example I-1712, (2S,6R)-2-cyclopropyl-6-[1-(difluoromethyl)pyrazol-4-yl]-4-[4-[2-fluoro-4-(trifluoromethyl)phenyl]-6,7-dimethyl-pteridin-2-yl]morpholine] yielded an EC50 of 50 to 500 nM.

The record behind these values is patent publication US20240309003A1, “HETEROCYCLIC COMPOUNDS AS TRIGGERING RECEPTOR EXPRESSED ON MYELOID CELLS 2 AGONISTS AND METHODS OF USE” (Vigil Neuroscience, Inc., priority 2021, published 2024).
